Here are results for one molecule from paper PMC10804683, “Identification of the pyridoxal 5′‐phosphate allosteric site in human pyridox(am)ine 5′‐phosphate oxidase” (Protein Science : A Publication of the Protein Society, 2024).

One test deals with T1, apo-PNPO wt (Homo sapiens, UniProt Q9NVS9).
T1 construct: a main form corresponding to the entire protein; made in house; host or cells: E. coli BL21(DE3)
T1 sequence (Q9NVS9 1-261): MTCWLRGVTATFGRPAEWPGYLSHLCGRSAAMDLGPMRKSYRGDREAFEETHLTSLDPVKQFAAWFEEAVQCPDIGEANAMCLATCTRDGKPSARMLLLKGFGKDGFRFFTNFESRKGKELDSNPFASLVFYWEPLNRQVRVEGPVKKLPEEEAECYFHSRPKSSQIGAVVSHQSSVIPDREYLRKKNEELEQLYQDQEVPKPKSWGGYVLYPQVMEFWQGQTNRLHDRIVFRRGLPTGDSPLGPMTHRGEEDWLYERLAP
Put plainly: PLP binding by intrinsic fluorescence, apo wild type. Particulars: intrinsic fluorescence 335–345 nm, excitation 280 nm, 100 nM enzyme, read-out: Apo-enzyme PLP binding KD^FLUO. The source says: (§1) PLP binding to PNPO can be detected and quantitatively measured using differential scanning fluorimetry (DSF) and also by measuring FMN fluorescence changes. We had previously attributed DSF changes to PLP binding at the active site, while FMN fluorescence changes were attributed to PLP binding at the allosteric site (Barile et al., [2019], [2020]). Previous experiments carried out with the PNPO R161C variant, affecting a residue that is essential for substrate binding and catalysis (and therefore also for PLP binding at the active site), confirms that DSF measurements only report PLP binding at the active site (Barile et al., [2021]; Table 1). […] We expected to observe no FMN fluorescence changes upon titration of the variants with PLP. However, this was not the case, and the dissociation constant values obtained by observing the FMN fluorescence emission were only up to threefold larger in the variants with respect to wild type PNPO (Figure 3). […] To check the second possibility, we measured intrinsic fluorescence changes of wild type and variant apo‐forms (i.e., without FMN) upon PLP titration. […]
(§2) Analyses of PLP binding, based on FMN fluorescence increase observed upon binding of PLP to PNPO, were performed as described in Barile et al. ([2020]). […] Emission spectra were recorded from […], with excitation and emission slits set at 3 and 5 nm, respectively. […]

In test [1] the target is human PNPO wild type (holo-enzyme). The arrangement: method as in Barile et al. ([2020]). Particulars: FMN fluorescence changes, ref Barile et al. ([2020]), read-out: PLP binding KD^FLUO; cited from earlier work.
For test [2], the target named is T2, human PNPO F48A/E50L/R161C/R258L variant (holo-enzyme) (Homo sapiens, UniProt Q9NVS9, E50L/F48A/R161C/R258L).
T2 construct: a main form corresponding to the entire protein; made in house; host or cells: E. coli BL21(DE3)
T2 sequence (Q9NVS9 1-261 F48A/E50L/R161C/R258L): T1 sequence (Q9NVS9 1-261) with F48A, E50L, R161C, R258L
Description: PLP binding by fluorescence, F48A/E50L/R161C/R258L (35% FMN-saturated). Particulars: text: titrated by exciting at 280 nm.
From the text: as §1, §2

Numbering of substitutions follows the chain as printed. Entries after “also recorded” stand apart in the source; their conditions may differ.

`Cc1ncc(COP(=O)(O)O)c(C=O)c1O` [PLP, pyridoxal 5′‐phosphate]: the dissociation constant (Kd) was 600 ± 50 nM on apo-PNPO wt and 950 ± 10 nM in test [1]. Besides, the “PLP binding KD^FLUO” value in test [2] is “no variation in the emitted fluorescence was observed; also recorded: No binding”.

Usually Kd stands for a measure of binding affinity in units of concentration.
